Assay results: patent publication US6060481A, “Method for improving insulin sensitivity using an adenosine receptor antagonist” (priority 1999, dated 2000)

How the values were obtained:
insulin receptor kinase = assay: Insulin receptor kinase assay of partially purified receptors from gastrocnemius of treated rats; type: in vivo, Zucker rats
Experimental: BWA1433 was administered as previously described, in a suspension of 7 mg/ml methyl cellulose containing 10 mg/ml BWA1433. BWA1433 was supplied as a free acid from Glaxo-Wellcome but was adjusted to pH 8.0 with NaOH prior to use. In this way, treated animals were given 12 mg/kg BWA1433 every 12 hours (±1 hour) for one week.
Insulin receptors were prepared from 100 mg frozen powdered skeletal muscle using lectin affinity chromatography, as taught by Caro, J. Clin. Invest., 79:1330-1337 (1987). Supernatants from detergent (Triton X-100) solubilized muscle were cycled over 0.3 ml bed volume wheat germ agglutinin agarose (WGA) columns, after which the columns were washed thoroughly overnight. The receptors were eluted in one ml of buffer containing 25 mM N-[2-hydroxyethyl]piperazine-N'-[2-ethanesulfonic acid] (HEPES) (pH 7.6), 55 mM NaCl, 11.25 mM KCI, 0.5 mM CaCl2, 0.5 mM MgCl2, 0.5 mM Na3 VO4, 5 mM NaF, 10% glycerol, 0.05% Triton X-100, and 300 mM-acetyl-D-glucosamine. WGA column eluates were aliquoted to avoid multiple freezing/thawing and were stored at -70° C. until use. Columns were thoroughly washed (50-100 bed volumes wash buffer) and reused. Receptors were quantitated by assaying protein and immunoblotting to specifically assess insulin receptor protein.
Insulin receptor kinase activity was determined using a modification of previously published techniques by Debant, et al., Am. […] Papers were blotted, oven-dried, and radioactivity determined by scintillation counting using a Beckman Model LS3801 scintillation counter. Activity was calculated in mUnits receptor kinase/mg of WGA eluate protein. […]
Insulin receptor kinase activity was measured 1) in the basal state in non-insulin-injected animals, 2) in insulin-injected animals without added insulin, and 3) in receptors isolated from insulin injected animals but stimulated in vitro with 1 μM exogenous insulin. […] Intravenous insulin-injection increased the observed activity of the insulin receptor kinase 7- to 12-fold when measured in the absence of insulin added in vitro (FIG. 4A). […]

[1] = target: T1, human A2A adenosine receptor (Homo sapiens, UniProt P29274); assay: Binding constants against cloned and expressed human adenosine receptor subtypes (A2A); settings: read-out: Binding constant (KD) A2A
T1 construct: expressed in transfected cells
T1 sequence (P29274 whole entry): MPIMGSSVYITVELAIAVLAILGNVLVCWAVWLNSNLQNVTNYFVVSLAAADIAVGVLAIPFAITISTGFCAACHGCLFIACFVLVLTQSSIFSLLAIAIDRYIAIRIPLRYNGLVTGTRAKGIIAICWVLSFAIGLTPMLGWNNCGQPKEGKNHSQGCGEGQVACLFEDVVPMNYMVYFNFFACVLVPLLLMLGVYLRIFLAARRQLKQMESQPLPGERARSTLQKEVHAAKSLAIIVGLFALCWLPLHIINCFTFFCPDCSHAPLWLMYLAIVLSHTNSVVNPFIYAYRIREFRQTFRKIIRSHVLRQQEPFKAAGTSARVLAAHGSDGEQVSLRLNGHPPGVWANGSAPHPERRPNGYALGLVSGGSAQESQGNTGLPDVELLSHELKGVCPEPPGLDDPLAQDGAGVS

[2] = target: T2, human A1 adenosine receptor (Homo sapiens, UniProt P30542); assay: Binding constants against cloned and expressed human adenosine receptor subtypes (A1); settings: read-out: Binding constant (KD) A1
T2 construct: expressed in transfected cells
T2 sequence (P30542 1-326): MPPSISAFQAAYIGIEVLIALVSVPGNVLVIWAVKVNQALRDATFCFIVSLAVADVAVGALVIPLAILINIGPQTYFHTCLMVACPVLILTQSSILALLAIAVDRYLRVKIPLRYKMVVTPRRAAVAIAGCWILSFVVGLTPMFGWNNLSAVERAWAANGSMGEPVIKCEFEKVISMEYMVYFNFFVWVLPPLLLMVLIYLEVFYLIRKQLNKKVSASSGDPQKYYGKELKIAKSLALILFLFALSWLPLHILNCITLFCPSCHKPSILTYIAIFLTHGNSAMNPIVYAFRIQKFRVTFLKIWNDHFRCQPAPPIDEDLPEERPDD

[3] = target: T3, human A2B adenosine receptor (Homo sapiens, UniProt P29275); assay: Binding constants against cloned and expressed human adenosine receptor subtypes (A2B); settings: read-out: Binding constant (KD) A2B
T3 construct: expressed in transfected cells
T3 sequence (P29275 1-332): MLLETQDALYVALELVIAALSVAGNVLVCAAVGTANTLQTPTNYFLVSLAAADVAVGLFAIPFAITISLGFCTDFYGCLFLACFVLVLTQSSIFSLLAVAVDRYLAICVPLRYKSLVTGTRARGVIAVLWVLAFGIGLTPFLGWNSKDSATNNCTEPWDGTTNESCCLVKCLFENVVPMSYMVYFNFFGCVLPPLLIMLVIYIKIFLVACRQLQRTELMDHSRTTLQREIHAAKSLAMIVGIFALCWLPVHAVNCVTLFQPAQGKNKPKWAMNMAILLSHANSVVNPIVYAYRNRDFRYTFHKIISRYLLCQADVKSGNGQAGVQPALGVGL
Excerpt: Any A2B adenosine receptor antagonist can be used according to the present methods. Methods for determining whether a compound is an A2B adenosine receptor agonist or antagonist involve quantitating its binding affinity to membranes which are known to contain the A2B subtype. The methods for determining whether compounds are specific ligands of different adenosine receptor subtypes will be known by practitioners of the art. […] References cited therein provide more complete descriptions of the procedures used.
In these previous methods, a radioactive compound (DPCPX) known to be highly specific for A1 adenosine receptors and whose KD is published was incubated with isolated fat cell membranes. A1 adenosine receptors are abundant in fat cells and DPCPX's binding to fat cell membranes occurs due to those receptors. […] Human cells which express large amounts of human A2B adenosine receptors are not readily available. Therefore, in order to determine the KD of BWA1433 for the A2B adenosine receptor the cDNA of human A2B adenosine receptor was used to overexpress the A2B adenosine receptor in a mammalian cell line.

CCCn1c(=O)c2[nH]c(-c3ccc(C=CC(=O)O)cc3)nc2n(CCC)c1=O [BWA1433, 1,3-dipropyl-8-(p-acrylic)phenylxanthine]
Insulin receptor kinase activity (insulin receptor kinase; lean rats, insulin in vivo plus 1 μM insulin in vitro): no significant influence
Insulin receptor kinase activity (insulin receptor kinase; obese animals, insulin injected in vivo, no insulin added in vitro): small but significant increase
Insulin receptor kinase activity (insulin receptor kinase; obese rats, insulin in vivo plus 1 μM insulin in vitro): increased
Kd [1]: 190 nM
Kd [2]: 140 nM
Kd [3]: 60 nM
